Measured values: ChEMBL document CHEMBL1147032, “Design, synthesis, and biological evaluation of substituted 2-alkylthio-1,5-diarylimidazoles as selective COX-2 inhibitors” (Bioorg Med Chem, 2007)

Key:
[1] = system: Rattus norvegicus; assay: Antiinflammatory activity against carrageenan-induced paw edema in Sprague-Dawley rat at 50 mg/kg, po after 5 hrs; format: functional
[2] = system: Rattus norvegicus; assay: Antiinflammatory activity against carrageenan-induced paw edema in Sprague-Dawley rat at 50 mg/kg, po after 3 hrs; format: functional
[3] = target: T1, Prostaglandin G/H synthase 2 (Mus musculus, UniProt Q05769); assay: Inhibition of mouse COX2
T1 sequence (Q05769 whole entry): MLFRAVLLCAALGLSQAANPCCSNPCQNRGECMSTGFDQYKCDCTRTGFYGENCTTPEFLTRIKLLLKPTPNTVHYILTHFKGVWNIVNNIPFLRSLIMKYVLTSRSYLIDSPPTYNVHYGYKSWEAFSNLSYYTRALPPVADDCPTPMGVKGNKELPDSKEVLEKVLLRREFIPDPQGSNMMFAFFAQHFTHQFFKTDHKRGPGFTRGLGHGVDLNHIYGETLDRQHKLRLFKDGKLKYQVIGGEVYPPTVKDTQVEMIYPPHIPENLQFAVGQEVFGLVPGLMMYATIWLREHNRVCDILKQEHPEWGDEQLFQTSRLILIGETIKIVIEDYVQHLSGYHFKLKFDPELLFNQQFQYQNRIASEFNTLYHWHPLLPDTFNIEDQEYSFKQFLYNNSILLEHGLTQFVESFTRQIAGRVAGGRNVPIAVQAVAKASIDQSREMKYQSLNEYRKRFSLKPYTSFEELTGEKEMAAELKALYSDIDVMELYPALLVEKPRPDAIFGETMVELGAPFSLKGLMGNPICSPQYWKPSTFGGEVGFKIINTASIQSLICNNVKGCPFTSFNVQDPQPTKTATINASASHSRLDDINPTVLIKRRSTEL

[4] = target: T2, Prostaglandin G/H synthase 1 (Ovis aries, UniProt P05979); assay: Inhibition of ovine COX1
T2 sequence (P05979 whole entry): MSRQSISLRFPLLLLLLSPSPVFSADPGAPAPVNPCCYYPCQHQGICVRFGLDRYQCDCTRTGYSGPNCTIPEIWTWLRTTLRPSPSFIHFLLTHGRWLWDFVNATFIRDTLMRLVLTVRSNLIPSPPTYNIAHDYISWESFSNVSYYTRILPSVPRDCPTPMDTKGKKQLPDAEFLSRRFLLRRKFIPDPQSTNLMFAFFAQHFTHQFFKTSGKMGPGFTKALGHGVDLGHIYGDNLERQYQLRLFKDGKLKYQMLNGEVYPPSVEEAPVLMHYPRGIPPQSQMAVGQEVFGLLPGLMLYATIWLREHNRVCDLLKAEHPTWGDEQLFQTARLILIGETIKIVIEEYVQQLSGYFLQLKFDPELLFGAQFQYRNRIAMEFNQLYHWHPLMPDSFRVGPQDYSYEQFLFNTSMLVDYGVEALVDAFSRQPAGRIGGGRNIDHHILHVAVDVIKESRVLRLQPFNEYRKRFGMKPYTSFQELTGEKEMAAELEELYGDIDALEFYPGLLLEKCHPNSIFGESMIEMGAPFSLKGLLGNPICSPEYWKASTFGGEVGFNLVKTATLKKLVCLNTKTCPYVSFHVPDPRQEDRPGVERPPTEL

[5] = Inhibition of ovine COX1 at 0.5 uM
[6] = Inhibition of ovine COX1 at 25 uM

SMILES | IC50 [3] [µM] | IC50 [4] [nM] | inhibition [5] [%] | inhibition [6] [%] | inhibition in vivo at 50 mg/kg [1] [%] | inhibition in vivo at 50 mg/kg [2] [%]
Cc1ccc(-c2cc(C(F)(F)F)nn2-c2ccc(S(N)(=O)=O)cc2)cc1 [CELECOXIB] |  |  |  |  | 50 | 70.5
CSc1ncc(-c2ccc(S(C)(=O)=O)cc2)n1-c1ccc(Br)cc1 | > 25 | 430 |  |  | 88 | 90.7
CCSc1ncc(-c2ccc(S(C)(=O)=O)cc2)n1-c1ccccc1 | > 25 | 580 |  |  | 51.1 | 89.7
CSc1ncc(-c2ccc(S(C)(=O)=O)cc2)n1-c1ccccc1 | > 25 | 580 |  |  | 61.6 | 74.1
COc1ccc(-n2c(-c3ccc(S(C)(=O)=O)cc3)cnc2SC)cc1 | > 25 | 2610 |  |  | 34.3 | 41.3
CSc1ncc(-c2ccc(S(C)(=O)=O)cc2)n1-c1ccc(Cl)cc1 | > 25 | 470 |  |  | 42.7 | 59.5

Further lines, with some results ahead:

IC50 [3] [µM] | IC50 [4] [nM] | inhibition [5] [%] | inhibition [6] [%] | SMILES | inhibition in vivo at 50 mg/kg [1] [%] | inhibition in vivo at 50 mg/kg [2] [%]
> 25 | 510 |  |  | CCSc1ncc(-c2ccc(S(C)(=O)=O)cc2)n1-c1ccc(OC)cc1 |  | 
> 25 | > 4000 |  |  | CCSc1ncc(-c2ccc(S(C)(=O)=O)cc2)n1-c1ccc(Br)cc1 | 59 | 66
> 25 | 500 | 21 | 29 | CCSc1ncc(-c2ccc(S(C)(=O)=O)cc2)n1-c1ccc(F)cc1 | 43 | 65
> 25 | 820 |  |  | CCSc1ncc(-c2ccc(S(C)(=O)=O)cc2)n1-c1ccc(Cl)cc1 | 52.7 | 53.8
> 25 | 520 |  |  | CSc1ncc(-c2ccc(S(C)(=O)=O)cc2)n1-c1ccc(F)cc1 | 18.7 | 40
